# Experimental data taken from US10065990B2, “Cyclic peptide compound, and preparation method, pharmaceutical composition and use thereof” (HANGZHOU GUANYU BIO-MEDICAL CO., LTD, priority 2013, dated 2018).
# Where two headings read alike, the source gives them in different places.
# Experiments:
# [1] = molecular target: HDAC3 (Homo sapiens, UniProt O15379); assay: HDAC biochemical activity measurement (fluorescent substrate deacetylation);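 also: fluorogenic acetyl-lysine substrate (20 µM) deacetylated by HDAC3, then developer added for 15 min at room temperature, release of fluorophore read at excitation 360 nm, emission 460 nm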
# HDAC3, sequence (O15379 whole entry, species assumed): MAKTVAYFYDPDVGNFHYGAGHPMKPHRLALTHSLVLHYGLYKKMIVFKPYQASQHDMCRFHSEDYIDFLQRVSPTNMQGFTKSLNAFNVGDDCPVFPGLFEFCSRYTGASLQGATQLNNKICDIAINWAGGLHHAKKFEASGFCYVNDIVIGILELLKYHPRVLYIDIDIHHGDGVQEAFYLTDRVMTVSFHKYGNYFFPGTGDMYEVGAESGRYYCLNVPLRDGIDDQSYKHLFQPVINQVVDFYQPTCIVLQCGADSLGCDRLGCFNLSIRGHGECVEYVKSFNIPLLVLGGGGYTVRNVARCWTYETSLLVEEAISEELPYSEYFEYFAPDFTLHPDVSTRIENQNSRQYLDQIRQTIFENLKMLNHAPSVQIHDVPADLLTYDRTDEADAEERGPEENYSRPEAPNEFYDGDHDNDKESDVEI
# HDAC3, sequence (Q9Y618 395-489 partner limits assumed, species assumed): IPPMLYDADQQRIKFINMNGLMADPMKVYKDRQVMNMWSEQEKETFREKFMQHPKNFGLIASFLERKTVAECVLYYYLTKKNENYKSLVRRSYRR
# [2] = molecular target: HDAC2 (Homo sapiens, UniProt Q92769); assay: as above; conditions: 37° C. 30 minutes;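 also: HDAC2 enzyme with an acetyl-lysine fluorescent substrate, then developer added, fluorescence read at excitation 360 nm and emission 460 nm, inhibition measured across several compound concentrations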
# HDAC2, sequence (Q92769 whole entry, species assumed): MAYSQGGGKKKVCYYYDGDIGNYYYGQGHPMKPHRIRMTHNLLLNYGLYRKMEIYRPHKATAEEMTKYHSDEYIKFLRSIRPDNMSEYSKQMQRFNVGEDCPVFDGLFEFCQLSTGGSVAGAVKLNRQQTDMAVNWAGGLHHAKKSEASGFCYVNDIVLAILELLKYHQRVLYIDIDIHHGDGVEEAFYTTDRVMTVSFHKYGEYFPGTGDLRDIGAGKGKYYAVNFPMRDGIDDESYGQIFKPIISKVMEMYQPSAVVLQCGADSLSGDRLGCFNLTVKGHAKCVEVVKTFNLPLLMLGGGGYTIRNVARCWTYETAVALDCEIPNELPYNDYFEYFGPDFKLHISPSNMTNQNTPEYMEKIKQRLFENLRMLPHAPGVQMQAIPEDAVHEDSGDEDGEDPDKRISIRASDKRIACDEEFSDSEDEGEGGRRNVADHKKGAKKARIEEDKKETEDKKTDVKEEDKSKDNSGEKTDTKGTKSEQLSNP
# [3] = molecular target: T1, HDAC11 (Homo sapiens, UniProt Q96DB2); assay: as above;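 also: HDAC11 enzyme acting on an acetyl-lysine fluorogenic substrate, then a developer frees the fluorophore, read at excitation 360 nm and emission 460 nm, IC50 over a compound dilution series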
# T1 sequence (Q96DB2 1-347): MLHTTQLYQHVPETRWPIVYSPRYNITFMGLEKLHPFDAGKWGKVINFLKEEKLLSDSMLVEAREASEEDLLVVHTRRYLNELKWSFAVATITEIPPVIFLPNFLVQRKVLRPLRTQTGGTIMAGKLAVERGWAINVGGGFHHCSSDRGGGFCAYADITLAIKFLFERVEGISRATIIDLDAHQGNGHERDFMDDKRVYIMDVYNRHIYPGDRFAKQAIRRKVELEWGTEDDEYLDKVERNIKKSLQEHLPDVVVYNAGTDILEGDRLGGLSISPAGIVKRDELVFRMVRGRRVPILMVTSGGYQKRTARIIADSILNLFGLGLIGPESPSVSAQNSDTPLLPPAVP
# Protocol: (§2) The chemical activity of the compound is determined according to the degree of deacetylation inhibition of the HDAC enzyme. This experiment measured the degree of deacetylation related to tumor proliferation and metastasis of HDAC1, HDAC2, HDAC3, HDAC8, HDAC11 five subtypes HDAC enzymes. After the substrate containing an acetylated lysine side chain and HDAC enzyme are labeled with a fluorescent label, the fluorescent substrate is de acetyl. The fluorescent labeled substrate is cleaved by the enzyme, and the fluorescent substance is released, which generates 460 nm emission light under the excitation of 360 nm light.
# (§3) HDAC substrate was diluted with reaction buffer to 200M (reaction concentration of 20M), the HDAC enzyme was diluted to the appropriate concentration, then added different concentrations of the test compounds and acted at 37° C. 30 minutes, and then added the same volume of 2-times concentration substrate developing solution (developer), incubated at room temperature for 15 minutes.
# [4] = tested on: K562 (human leukemia cells); assay: MTT cancer cell growth inhibition; assay type: cell-based; conditions: MTT, 72 hours incubation, K562 cells, read-out: GI50 K562
# In short: (§1)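 Using a 72 h MTT format, triplicate wells of 1500 cells received compound concentrations from 10^−5 to 10^−10 M. Formazan was read at 570 nm after DMSO dissolution, and GI50 was derived from viability.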
# [5] = tested on: HT1080 (human fibrosarcoma cells); assay: MTT cancer cell growth inhibition; assay type: cell-based; conditions: Homo sapiens, HT-1080, 72 h, MTT
# In short: as §1
# [6] = tested on: N-87 (human gastric cancer cells); assay: MTT cancer cell growth inhibition; assay type: cell-based; conditions: MTT, 72 hours incubation, N-87 cells, read-out: GI50 N-87
# In short: as §1
# [7] = tested on: HCC827 (human non-small cell lung cancer cells); assay: MTT cancer cell growth inhibition; assay type: cell-based; conditions: MTT, 72 hours incubation, HCC827 cells, read-out: GI50 HCC827
# In short: as §1
# [8] = tested on: Bel-7402 (human hepatoma cells); assay: MTT cancer cell growth inhibition; assay type: cell-based; conditions: MTT, 72 hours incubation, Bel-7402 cells, read-out: GI50 Bel-7402
# In short: as §1
# [9] = molecular target: HDAC1 (Homo sapiens, UniProt Q13547); assay: HDAC biochemical activity measurement (fluorescent substrate deacetylation);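 also: fluorogenic acetyl-lysine substrate (20 µM) deacetylated by HDAC1, then developer releases fluorophore read at 360 nm excitation and 460 nm emission, inhibitor incubated 30 min at 37 °C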
# HDAC1, sequence (Q13547 whole entry, species assumed): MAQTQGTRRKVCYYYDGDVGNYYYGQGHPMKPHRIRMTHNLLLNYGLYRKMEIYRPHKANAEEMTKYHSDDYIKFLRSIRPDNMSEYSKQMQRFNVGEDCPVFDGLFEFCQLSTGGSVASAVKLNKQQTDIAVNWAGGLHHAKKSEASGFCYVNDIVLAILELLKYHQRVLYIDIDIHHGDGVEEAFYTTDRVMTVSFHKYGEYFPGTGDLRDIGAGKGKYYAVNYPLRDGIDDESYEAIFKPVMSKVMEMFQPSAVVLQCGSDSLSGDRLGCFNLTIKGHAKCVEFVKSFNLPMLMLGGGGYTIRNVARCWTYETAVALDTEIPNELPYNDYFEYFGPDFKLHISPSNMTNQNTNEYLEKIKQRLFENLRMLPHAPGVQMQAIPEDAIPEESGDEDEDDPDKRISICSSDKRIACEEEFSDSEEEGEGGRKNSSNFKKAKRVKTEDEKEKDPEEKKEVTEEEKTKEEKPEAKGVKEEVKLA
# [10] = molecular target: T2, HDAC7 (Homo sapiens, UniProt Q8WUI4); assay: as above; conditions: HDAC7; 37° C. 30 minutes;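 also: fluorogenic deacetylation assay using acetyl-lysine substrate at 20 µM, enzyme and compound incubated 30 min at 37 °C, then developer added, fluorescence read at 360/460 nm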
# T2 sequence (Q8WUI4 1-952): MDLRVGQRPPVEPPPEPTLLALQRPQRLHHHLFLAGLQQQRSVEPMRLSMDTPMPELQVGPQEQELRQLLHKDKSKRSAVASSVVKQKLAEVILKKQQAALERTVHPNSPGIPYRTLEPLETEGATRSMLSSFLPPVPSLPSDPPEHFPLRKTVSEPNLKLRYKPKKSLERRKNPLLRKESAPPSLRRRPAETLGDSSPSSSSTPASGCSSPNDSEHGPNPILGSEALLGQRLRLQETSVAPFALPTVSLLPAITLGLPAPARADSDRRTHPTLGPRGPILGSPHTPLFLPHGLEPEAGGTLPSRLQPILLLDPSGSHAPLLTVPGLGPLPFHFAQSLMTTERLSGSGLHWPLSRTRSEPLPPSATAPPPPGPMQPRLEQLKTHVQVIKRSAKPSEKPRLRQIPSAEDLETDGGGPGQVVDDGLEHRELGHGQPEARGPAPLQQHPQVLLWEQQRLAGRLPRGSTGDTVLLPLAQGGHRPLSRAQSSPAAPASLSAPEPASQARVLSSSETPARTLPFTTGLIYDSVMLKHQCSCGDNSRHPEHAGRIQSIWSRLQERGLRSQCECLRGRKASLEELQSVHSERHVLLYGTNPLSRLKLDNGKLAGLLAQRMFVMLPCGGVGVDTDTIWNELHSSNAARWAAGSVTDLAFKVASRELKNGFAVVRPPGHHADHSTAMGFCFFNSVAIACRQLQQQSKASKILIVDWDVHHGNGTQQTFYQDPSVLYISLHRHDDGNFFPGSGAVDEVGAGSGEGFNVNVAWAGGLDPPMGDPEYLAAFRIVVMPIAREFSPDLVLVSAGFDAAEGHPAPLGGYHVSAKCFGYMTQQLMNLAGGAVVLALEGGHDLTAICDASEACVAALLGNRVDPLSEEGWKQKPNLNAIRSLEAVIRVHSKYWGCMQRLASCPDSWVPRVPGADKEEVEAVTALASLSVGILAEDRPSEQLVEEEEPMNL
# [11] = molecular target: T3, HDAC8 (Homo sapiens, UniProt Q9BY41); assay: as above; conditions: 37° C. 30 minutes
# T3 sequence (Q9BY41 1-377): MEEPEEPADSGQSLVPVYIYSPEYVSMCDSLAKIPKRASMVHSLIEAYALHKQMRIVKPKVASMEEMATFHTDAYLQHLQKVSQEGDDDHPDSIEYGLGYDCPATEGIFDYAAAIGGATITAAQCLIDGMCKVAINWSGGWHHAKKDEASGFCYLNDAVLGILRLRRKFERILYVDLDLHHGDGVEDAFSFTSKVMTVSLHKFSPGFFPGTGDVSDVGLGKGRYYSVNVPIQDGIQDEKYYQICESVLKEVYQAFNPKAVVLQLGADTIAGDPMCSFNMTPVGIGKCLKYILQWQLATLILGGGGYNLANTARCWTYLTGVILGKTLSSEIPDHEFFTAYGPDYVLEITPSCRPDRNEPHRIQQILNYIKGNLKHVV
# Protocol: as §2, §3
# [12] = read-out: IC50 HDAC3, HDAC3, 37° C. 30 minutes
# [13] = read-out: IC50 HDAC11, HDAC11, 37° C. 30 minutes
# [14] = 72 hours incubation, read-out: GI50 HT1
# [15] = 72 hours, present invention, read-out: GI50 HT1080, a
# [16] = HDAC1, 37° C. 30 minutes, read-out: IC50 HDAC1
# [17] = Table 2, read-out: IC50 HDAC1, a (compounds of the present invention)
# [18] = Table 3, read-out: IC50 HDAC1, D (non-substituent)
# [19] = HT1080 cells, 72 hours incubation, read-out: GI50 HT1
"IC50 [1, 12] [µM]",IC50 [2] [µM],"IC50 [3, 13] [µM]","GI50 ([4]; Homo sapiens, K562, 72 h) [µM]","GI50 [5, 14] [µM]","GI50 [5, 15] [µM]","GI50 ([6]; Homo sapiens, 72 h) [µM]","GI50 ([7]; Homo sapiens, HCC827, 72 h) [µM]","GI50 ([8]; Homo sapiens, Bel-7402, 72 h) [µM]","IC50 [9, 16] [µM]","IC50 [9, 17] [µM]",IC50 HDAC7 [10],IC50 [11] [µM],IC50 [1] [µM],IC50 [3] [µM],"GI50 [5, 19] [µM]",SMILES,other results
0.045,0.055,0.081,0.063,0.14,0.14,0.037,0.023,0.076,0.029,< 0.03,no activity,0.071,,,,C/C=C1\NC(=O)c2cccc(n2)CNC(=O)C[C@@H](/C=C/CCSC(=O)CCCCCCC)OC(=O)[C@H](C)NC1=O [Compound 11],"IC50 [9, 18]: 0.029 µM"
,0.064,,0.017,18,,0.039,0.055,0.097,0.091,,no activity,0.064,0.046,0.094,,C/C=C1\NC(=O)c2cccc(n2)CCNC(=O)C[C@@H](/C=C/CCSC(C)=O)OC(=O)[C@H](C(C)C)NC1=O [Example 26],
,0.021,,0.047,,0.033,0.096,0.066,0.079,0.045,< 0.05,no activity,0.052,0.053,0.056,0.01,C/C=C1\NC(=O)c2cccc(n2)CNC(=O)C[C@@H](/C=C/CCSC(=O)CCCCCCC)OC(=O)[C@H](CCSC)NC1=O [Compound 240],
,0.162,,0.053,0.09,,0.034,0.041,0.094,0.153,,no activity,0.041,0.051,0.097,,C/C=C1\NC(=O)c2cccc(n2)CNC(=O)C[C@@H](/C=C/CCSC=O)OC(=O)[C@H](C(C)C)NC1=O [Compound 8],"IC50 [9, 18]: 0.153 µM"
,0.052,,0.046,0.07,,0.065,0.072,0.072,0.046,,no activity,0.041,0.051,0.103,,C/C=C1\NC(=O)c2nc(ccc2F)CNC(=O)C[C@@H](/C=C/CCSC=O)OC(=O)[C@H](C(C)C)NC1=O [Example 51],
,0.026,,0.053,,,0.055,0.032,0.058,0.091,,no activity,0.036,0.035,0.099,0.02,C/C=C1\NC(=O)c2cc(SC)cc(n2)CNC(=O)C[C@@H](/C=C/CCSC(C)=O)OC(=O)[C@H](CC)NC1=O [Compound 178],
,0.015,,,0.04,,,,,0.081,,no activity,0.014,0.047,0.093,,C/C=C1\NC(=O)c2nc(ccc2F)CNC(=O)C[C@@H](/C=C/CCSC(C)=O)OC(=O)[C@H](C(C)C)NC1=O [Example 48],GI50 [4]: 0.028 µM; GI50 [6]: 0.081 µM; GI50 [7]: 0.042 µM; GI50 [8]: 0.042 µM
0.038,0.038,0.083,0.034,0.06,,0.075,0.067,0.067,0.013,,no activity,0.038,,,,C/C=C1\NC(=O)c2cc(F)cc(n2)CNC(=O)C[C@@H](/C=C/CCSC(=O)CCCCCCC)OC(=O)[C@H](C)NC1=O [Compound 61],"IC50 ([9]; Table 3, column C, read-out: IC50 HDAC1, C (six-membered ring with substituents)): 0.013 µM"
0.087,0.069,0.235,0.012,,0.017,0.041,0.053,0.038,0.09,< 0.1,no activity,0.132,,,0.01,CCCCCCCC(=O)SCC/C=C/[C@@H]1CC(=O)NCc2cccc(n2)C(=O)NCC(=O)N[C@@H](C(C)C)C(=O)O1 [Compound 246],
